Assays:
colon carcinoma Caco2 = test: MTT cytotoxicity evaluation, Caco2; assay type: cell-based; details: Homo sapiens, Caco-2, read-out: IC50 (μM ± SD) Caco2
breast MCF-7 = test: MTT cytotoxicity evaluation, MCF-7; details: for IC50: Homo sapiens, MCF7, read-out: IC50 (μM ± SD) MCF-7
hepatic carcinoma HepG-2 = test: MTT cytotoxicity evaluation, HepG-2; assay type: cell-based; details: Homo sapiens, HepG2, read-out: IC50 (μM ± SD) HepG-2
[1] = tested on: normal lung fibroblast WI-38; test: MTT cytotoxicity evaluation, normal WI-38; assay type: cell-based; details: Homo sapiens, WI-38, read-out: IC50 (μM ± SD) WI-38
HepG-2, Caco2, and MCF-7 = test: MTT cytotoxicity, statements over the three cancer cell lines; assay type: cell-based, human; details: 9c versus 3

Row | Structure (SMILES) | IC50 (colon carcinoma Caco2) [µM] | IC50 (breast MCF-7) [µM] | IC50 (hepatic carcinoma HepG-2) [µM] | IC50 [1] [µM] | improvement of the cytotoxic effect, times (breast MCF-7; thiosemicarbazone 3 versus acetyl derivative 1, MCF-7) [times] | drop in cytotoxicity, times (HepG-2, Caco2, and MCF-7) [times]
1 | CNC(=S)NN=C(C)c1nn(-c2ccc(S(N)(=O)=O)cc2)c(=N)s1 [Compound 9a, 2-(1-(5-Imino-4-(4-sulfamoylphenyl)-4,5-dihydro-1,3,4-thiadiazol-2-yl)ethylidene)-N-methylhydrazine-1-carbothioamide] | 1.01 ± 0.1 | 1.12 ± 0.1 | 0.53 ± 0.01 | 18.4 ± 1.7 |  | 
2 | CC(=O)c1sc(NN=C(C)c2nn(-c3ccc(S(N)(=O)=O)cc3)c(=N)s2)nc1C [Compound 6, 4-(5-(1-(2-(5-Acetyl-4-methylthiazol-2-yl)hydrazineylidene)ethyl)-2-imino-1,3,4-thiadiazol-3(2H)-yl)benzenesulfonamide] | 33.8 ± 1.7 | 21.2 ± 1.2 | 32.9 ± 1.9 | 110 ± 5.7 |  | 
3 | CC(=NNC1=NC(=O)CS1)c1nn(-c2ccc(S(N)(=O)=O)cc2)c(=N)s1 [Compound 8, 4-(2-Imino-5-(1-(2-(4-oxo-4,5-dihydrothiazol-2-yl)hydrazineylidene)ethyl)-1,3,4-thiadiazol-3(2H)-yl)benzenesulfonamide] | 5.31 ± 0.3 | 27.2 ± 1.2 | 11.3 ± 0.6 | 22.9 ± 1.2 |  | 
4 | CC(=NNc1nc(-c2ccccc2)cs1)c1nn(-c2ccc(S(N)(=O)=O)cc2)c(=N)s1 [Compound 4, 4-(2-Imino-5-(1-(2-(4-phenylthiazol-2-yl)hydrazineylidene)ethyl)-1,3,4-thiadiazol-3(2H)yl)benzenesulfonamide] | 3.19 ± 0.2 | 3.52 ± 0.2 | 0.5 ± 0.04 | 21.4 ± 1.1 |  | 
5 | CC(=NNC(N)=S)c1nn(-c2ccc(S(N)(=O)=O)cc2)c(=N)s1 [Compound 3, 2-(1-(5-imino-4-(4-sulfamoylphenyl)-4,5-dihydro-1,3,4-thiadiazol-2-yl)ethylidene)hydrazine-1-carbothioamide] | 14.9 ± 0.7 | 6.38 ± 0.3 | 4.57 ± 0.3 | 44.4 ± 2.3 | 2.5 | 
6 | CC(=NNC(=S)Nc1ccccc1)c1nn(-c2ccc(S(N)(=O)=O)cc2)c(=N)s1 [Compound 9c, 2-(1-(5-imino-4-(4-sulfamoylphenyl)-4,5-di-hydro-1,3,4-thiadiazol-2-yl)ethylidene)-N-phenylhydrazine-1-carbothioamide] | 34.7 ± 1.7 | 21.1 ± 0.9 | 37.1 ± 2.1 | 28.5 ± 1.5 |  | 10
7 | CC(=O)c1nn(-c2ccc(S(N)(=O)=O)cc2)c(=N)s1 [Compound 1, 5-acetyl-3-N-(4-sulfamoylphenyl)-2-imino-1,3,4-thiadiazoline] | 11.1 ± 0.6 | 14.9 ± 0.7 | 59.6 ± 3.4 | 91.5 ± 4.7 |  | 
8 | C=CCNC(=S)NN=C(C)c1nn(-c2ccc(S(N)(=O)=O)cc2)c(=N)s1 [Compound 9b, N-Allyl-2-(1-(5-imino-4-(4-sulfamoylphenyl)-4,5-di-hydro-1,3,4-thiadiazol-2-yl)ethylidene)hydrazine-1-carbothioamide] | 74.8 ± 3.7 | 73 ± 3.3 | 149 ± 8.4 | 92.9 ± 4.8 |  | 
9 | C=CCn1c(-c2ccccc2)csc1=NN=C(C)c1nn(-c2ccc(S(N)(=O)=O)cc2)c(=N)s1 [Compound 12b, 4-(5-(1-((3-Allyl-4-phenylthiazol-2(3H)-ylidene)hydrazono)ethyl)-2-imino-1,3,4-thiadiazol-3(2H)-yl)benzenesulfonamide] | 25.5 ± 1.3 | 15.1 ± 0.7 | 17.5 ± 1.5 | 63.5 ± 3.9 |  | 
10 | CC(=NN=c1scc(-c2ccccc2)n1-c1ccc(Cl)cc1)c1nn(-c2ccc(S(N)(=O)=O)cc2)c(=N)s1 [Compound 12d, 4-(5-(1-((3-(4-Chlorophenyl)-4-phenylthiazol-2(3H)-ylidene)hydrazono)ethyl)-2-imino-1,3,4-thiadiazol-3(2H)-yl)benzenesulfonamide] | 1.06 ± 0.1 | 3.79 ± 0.2 | 4.26 ± 0.2 | 46.6 ± 2.4 |  | 
11 | CCOC(=O)c1sc(NN=C(C)c2nn(-c3ccc(S(N)(=O)=O)cc3)c(=N)s2)nc1C [Compound 7, Ethyl-2-(2-(1-(5-imino-4-(4-sulfamoylphenyl)-4,5-dihydro-1,3,4-thiadiazol-2-yl)ethylidene)hydrazineyl)-4-methylthiazole-5-carboxylate] | 7.39 ± 0.4 | 12.6 ± 0.6 | 19.6 ± 1.1 | 42.9 ± 2.2 |  | 
12 | CC(=NNC(=S)Nc1ccc(Cl)cc1)c1nn(-c2ccc(S(N)(=O)=O)cc2)c(=N)s1 [Compound 9d, N-(4-Chlorophenyl)-2-(1-(5-imino-4-(4-sulfamoylphenyl)-4,5-dihydro-1,3,4-thiadiazol-2-yl)-ethylidene)hydrazine-1-carbothioamide] | 98.7 ± 4.9 | 42.6 ± 1.8 | 153 ± 8.6 | 60.7 ± 3.1 |  | 

Reference: paper PMC10413337 (RSC Advances, 2023)
